Structures can show the parent of a compound that is named as a salt.
Target: T1, human β-Secretase (soluble part, AA1-AA460; sBACE-Fc) (Homo sapiens, UniProt P56817)
T1 construct: The soluble part of the human β-Secretase (AA1-AA460) was cloned into the ASP2-Fc10-1-IRES-GFP-neoK mammalian expression vector; made in house
Experiment: TR-FRET assay
Assay type: biochemical
Conditions: substrate (Europium)CEVNLDAEFK(Qsy7) 100 nM, pH 4.5, 15 min at RT; read-out: IC50 (nM) in TR-FRET assay

T1 sequence (P56817 22-460): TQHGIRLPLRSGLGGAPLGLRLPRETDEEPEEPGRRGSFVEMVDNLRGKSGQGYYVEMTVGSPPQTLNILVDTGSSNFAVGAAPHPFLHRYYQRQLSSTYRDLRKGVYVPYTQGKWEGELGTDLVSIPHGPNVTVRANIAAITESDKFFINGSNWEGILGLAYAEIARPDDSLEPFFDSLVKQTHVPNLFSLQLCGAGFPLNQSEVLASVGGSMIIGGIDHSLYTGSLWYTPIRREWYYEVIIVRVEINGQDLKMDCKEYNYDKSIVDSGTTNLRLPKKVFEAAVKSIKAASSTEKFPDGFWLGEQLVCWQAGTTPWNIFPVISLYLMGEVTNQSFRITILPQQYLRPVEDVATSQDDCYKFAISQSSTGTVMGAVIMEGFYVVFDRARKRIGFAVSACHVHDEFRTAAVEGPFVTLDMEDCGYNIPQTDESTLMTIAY

IC50 [nM]	Compound
1020	CN1C(=O)C(c2ccc(OS(=O)(=O)c3cn(C)cn3)cc2)(c2ccc(F)c(-c3cccnc3)c2)N=C1N (stereo not drawn) [Example 287, 4-[2-Amino-4-(4-fluoro-3-pyridin-3-ylphenyl)-1-methyl-5-oxo-4,5-dihydro-1H-imidazol-4-yl]phenyl 1-methyl-1H-imidazole-4-sulfonate]
115	COc1ccc(C(C)=O)c(-c2cc(C3(c4ccc(OS(C)(=O)=O)cc4)N=C(N)N(C)C3=O)ccc2F)c1 (stereo not drawn) [Example 289, 4-[4-(2′-Acetyl-6-fluoro-5′-methoxybiphenyl-3-yl)-2-amino-1-methyl-5-oxo-4,5-dihydro-1H-imidazol-4-yl]phenyl methanesulfonate]
1350	COc1cccc(-c2ccnc(C3(c4ccc(OS(C)(=O)=O)cc4)N=C(N)N(C)C3=O)c2)c1 (stereo not drawn) [Example 296, 4-{2-Amino-4-[4-(3-methoxyphenyl)pyridin-2-yl]-1-methyl-5-oxo-4,5-dihydro-1H-imidazol-4-yl}phenyl methanesulfonate 0.25 acetate]
874	COc1cccc(-c2ccnc(C3(c4ccc(OS(=O)(=O)C(F)(F)F)cc4)N=C(N)N(C)C3=O)c2)c1 (stereo not drawn) [Example 298, 4-{2-Amino-4-[4-(3-methoxyphenyl)pyridin-2-yl]-1-methyl-5-oxo-4,5-dihydro-1H-imidazol-4-yl}phenyl trifluoromethanesulfonate 0.5 acetate]
330	CN1C(=O)C(c2ccc(OS(C)(=O)=O)cc2)(c2ccc(F)c(C3=CCCCC3)c2)N=C1N (stereo not drawn) [Example 299, 4-[2-Amino-4-(3-cyclohex-1-en-1-yl-4-fluorophenyl)-1-methyl-5-oxo-4,5-dihydro-1H-imidazol-4-yl]phenyl methanesulfonate 0.5 acetate]
410	CN1C(=O)C(c2ccc(OS(C)(=O)=O)cc2)(c2ccc(F)c(C3CCCCC3)c2)N=C1N (stereo not drawn) [Example 300, 4-[2-Amino-4-(3-cyclohexyl-4-fluorophenyl)-1-methyl-5-oxo-4,5-dihydro-1H-imidazol-4-yl]phenyl methanesulfonate 0.5 acetate]
53	COc1ccnc(-c2cc(C3(c4ccc(OS(C)(=O)=O)cc4)N=C(N)N(C)C3=O)ccc2F)c1 (stereo not drawn) [Example 301, 4-{2-Amino-4-[4-fluoro-3-(4-methoxypyridin-2-yl)phenyl]-1-methyl-5-oxo-4,5-dihydro-1H-imidazol-4-yl}phenyl methanesulfonate 0.75 acetate]
101	COc1cc(OS(C)(=O)=O)cc(-c2cccc(C3(c4cc(C)nc(C)c4)N=C(N)N(C)C3=O)c2)c1 (stereo not drawn) [Example 305, 3′-(2-Amino-4-(2,6-dimethylpyridin-4-yl)-1-methyl-5-oxo-4,5-dihydro-1H-imidazo-4-yl)-5-methoxybiphenyl-3-yl methanesulfonate hydrochloride]
89	Cc1cc(C2(c3cccc(-c4cc(Cl)cc(OS(C)(=O)=O)c4)c3)N=C(N)N(C)C2=O)cc(C)n1 (stereo not drawn) [Example 306, 3′-(2-Amino-4-(2,6-dimethylpyridin-4-yl)-1-methyl-5-oxo-4,5-dihydro-1H-imidazo-4-yl)-5-chlorobiphenyl-3-yl methanesulfonate hydrochloride]
104	Cc1cc(C2(c3ccc(F)c(-c4cc(Cl)cc(OS(C)(=O)=O)c4)c3)N=C(N)N(C)C2=O)ccn1 (stereo not drawn) [Example 307, 5′-(2-Amino-1-methyl-4-(2-methylpyridin-4-yl)-5-oxo-4,5-dihydro-1H-imidazol-4-yl)-5-chloro-2′-fluorobiphenyl-3-yl methanesulfonate hydrochloride]
24	CN1C(=O)C(c2cccc(-c3cc(Cl)cc(OS(C)(=O)=O)c3)c2)(c2ccnc(Cl)c2)N=C1N (stereo not drawn) [Example 311, 3′-(2-Amino-4-(2-chloropyridin-4-yl)-1-methyl-5-oxo-4,5-dihydro-1H-imidazol-4-yl)-5-chlorobiphenyl-3-yl methanesulfonate hydrochloride]
26	COc1cc(OS(C)(=O)=O)cc(-c2cccc(C3(c4ccnc(Cl)c4)N=C(N)N(C)C3=O)c2)c1 (stereo not drawn) [Example 312, 2-Amino-5-(2-chloropyridin-4-yl)-5-[3-(3-methoxy-5-methylsulfonyloxy-phenyl)phenyl]-3-methyl-imidazol-4-one hydrochloride]

Source: patent publication US20080176862A1, “New Compounds 617” (ASTRAZENECA AB, priority 2006, published 2008)
